Key:
[1] = system: B16 melanoma cells; assay: Melanin formation prevention test (melanin production and cell proliferation); format: cell-based; conditions: for Degree of cell proliferation: relative to ethanol control
Description: B16 melanoma cells were suspended (10,000 cells/ml) in DMEM (Dulbecco's modified eagle medium) containing 10% FBS (fetal bovine serum) and 8 ml of the suspension was added to a cell culture bottle with a 25 cm^2 bottom surface area, and cultured at 37° C. in the presence of 5% carbon dioxide for 3 days. After 3 days of culture, the old medium was exchanged with 8 ml of fresh medium. 40 micro-liters of a sample solution, in which compounds of the present invention had been dissolved in ethanol to give a final concentration shown in the table, were further added thereto. As the control, ethanol only was added. After the medium change, the cells were further cultured for 3 days under the same conditions. After culture was finished, the medium was removed, and the cells were recovered by treatment with trypsin (DIFCO) and suspended in 4 ml of phosphate buffered saline (PBS) and a predetermined amount ( 1/40) of this suspension was used to measure the number of cells in a Coultar counter (Sysmex Co.) to determine the degree of cell proliferation.
The degree of cell proliferation was determined according to the following equations:
Degree of cell proliferation (%)=(number of cells in sample)/(number of cells in control)×100
The remainder of the cell suspension was centrifuged and then washed with 5% trichloroacetic acid, then with ethanol/ethyl ether (3:1 by volume), and with ethyl ether and the cells were dried, and 2N—NaOH was added thereto to dissolve (melanin in) the cells under heating at 70° C. and measured for its optical density (OD) at 420 nm. Using a calibration curve of synthetic melanin, the amount of melanin/million cells was determined from the OD and the degree of inhibition of melanin production was determined according to the following equation:
Degree of inhibition of melanin (%)=(amount of melanin in control−amount of melanin in sample)/(amount of melanin in control)×100

[2] = system: Propinibadterium Acnes ATCC 12818; assay: Anti-bacterial activity test, liquid medium dilution method (anaerobic); format: cell-based; conditions: Pa-1, anaerobic
Description: (§1) The aerobic microorganisms were examined in an agar medium dilution method and the anaerobic microorganisms were examined in a liquid medium dilution method under anaerobic culture conditions. 10 ml GAM broth (Nissui) was introduced into each test tube equipped with a cap and sterilized. 100 micro-liter of the sample solution prepared for agar medium dilution method was added to each test tube and lightly stirred, and 100 micro-liter test microbial solution (10^7 CFU/ml) was added thereto, then capped and incubated at 37° C. The test microbial solution was prepared by introducing 100 micro-liter stock microbial solution into 10 ml GAM broth in a test tube then capping the tube and fermenting it at 37° C. overnight.

[3] = system: streptococcus mutans JCM 5157; assay: as above; format: cell-based; conditions: Su-1, anaerobic
Description: as §1

[4] = system: Staphylococcus epidermidis JCM 2414; assay: Anti-bacterial activity test, agar medium dilution method; format: cell-based; conditions: Se-1
Description: (§2) The aerobic microorganisms were examined in an agar medium dilution method and the anaerobic microorganisms were examined in a liquid medium dilution method under anaerobic culture conditions. Muller Hinton agar medium (DIFCO) was heated and dissolved and 10 ml of the medium was introduced into each test tube, sterilized and used. The sample was prepared by dissolving in ethanol and the resulting ethanol solution was diluted 2-fold serially with ethanol, and 100 micro-liters of sample solution were added to 10 ml of each dissolved agar medium, then stirred, introduced into a Petri dish of 9 cm in diameter, and solidified at room temperature. Each test microorganism in a well grown slant was inoculated via one loop of platinum into 10 ml Muller Hinton broth (DIFCO) and cultured with shaking at 27° C. for 24 hours and used as a microbial fluid. This fluid was diluted at 10^8 CFU (Colony forming unit)/ml, and 5 micro-liters of the diluted fluid were inoculated onto the agar and cultured at 37° C. overnight. Inoculation of the microorganism was conducted using microplanter MIT-P for 27 tubes test microorganisms (Sakuma Seisakusho K. K.).

[5] = system: Malassezia furfur IFO 0656; assay: as above; format: cell-based; conditions: Mf-1
Description: as §2

[6] = system: Corynebacterium minutissimum ATCC 23348; assay: as above; format: cell-based; conditions: Cm-1
Description: as §2

[7] = system: Corynebacterium xerosis JCM 1324; assay: as above; format: cell-based; conditions: Cx-2
Description: as §2

[8] = system: Staphylococcus epidermidis var. H-6; assay: as above; format: cell-based; conditions: Se-2
Description: as §2

[9] = system: Staphylococcus aureus IFO 12732; assay: as above; format: cell-based; conditions: Sa-3
Description: as §2

[10] = system: Bacillus subtilis PCI 219 IFO 3134; assay: as above; format: cell-based; conditions: Bs-1
Description: as §2

[11] = system: Human-derived normal skin fibroblasts (NB1RGB); assay: Test of cell activating activity (fibroblast proliferation); format: cell-based; conditions: 8.0 ppm, relative to ethanol control (100)
Description: Human-derived normal skin fibroblasts (NB1RGB: Institute of Physical and Chemical Research) were suspended into DMEM containing 10% FBS to give a concentration of 20,000 cells/ml, and 5 ml each of this cellular suspension was introduced into each of 25 cm^2 bottles, cultured at 37° C. in the presence of 5% carbon dioxide for 24 hours. To each bottle, was added 10 micro-liter (0.2%) of the ethanol solution containing the compound to give the final concentration shown in Table 8. The cells were cultured for an additional 3 days. After 3 days the old medium was discarded and 5 ml fresh medium was added, and the sample was further added thereto. After this exchange of the medium, the cells were further cultured for another 3 days. Then cells were removed with trypsin and the number of cells in each bottle was counted with a Coultar counter. Simultaneously, as the control, only ethanol was added and the NB1RGB cells were cultured and the number of cells were counted in the same manner. The number of cells in each bottle to which the sample had been added was determined as a relative value to the number (as 100) of cells in the control after cultured, and the results are shown in Table 8.

[12] = system: B16 melanoma cells; assay: Combination test with existing tyrosinase inhibitors (method of Test Example 1); format: cell-based; conditions: 0.4 ppm, alone; Table 2, combined use with arbutin
Description: B16 melanoma cells were suspended (10,000 cells/ml) in DMEM (Dulbecco's modified eagle medium) containing 10% FBS (fetal bovine serum) and 8 ml of the suspension was added to a cell culture bottle with a 25 cm^2 bottom surface area, and cultured at 37° C. in the presence of 5% carbon dioxide for 3 days. After 3 days of culture, the old medium was exchanged with 8 ml of fresh medium. 40 micro-liters of a sample solution, in which compounds of the present invention had been dissolved in ethanol to give a final concentration shown in the table, were further added thereto. As the control, ethanol only was added. After the medium change, the cells were further cultured for 3 days under the same conditions. […] Degree of cell proliferation (%)=(number of cells in sample)/(number of cells in control)×100 […] Using a calibration curve of synthetic melanin, the amount of melanin/million cells was determined from the OD and the degree of inhibition of melanin production was determined according to the following equation: Degree of inhibition of melanin (%)=(amount of melanin in control−amount of melanin in sample)/(amount of melanin in control)×100 […]

[13] = system: mushroom-derived tyrosinase; assay: Mushroom tyrosinase inhibition test; format: biochemical; conditions: 25 ppm, L-tyrosine substrate, 37° C. 30 minutes
Description: After reaction, the absorbance (OD) at a wavelength of 490 nm was measured and the degree of inhibition of tyrosinase reaction was determined according to the following equation. […] Sample: The buffer, the enzyme solution, the substrate solution and the sample solution Sample-free: The buffer, the enzyme solution and the substrate solution Blank: The buffer and the enzyme solution

[14] = molecular target: T1, tyrosinase in B16 melanoma cells (Mus musculus, UniProt P11344); assay: Test of tyrosinase inhibition in B16 melanoma cells (crude enzyme solution); format: biochemical; conditions: 25 ppm, L-DOPA substrate, 37° C. 3 hours
T1 construct: the resulting supernatant was used as a crude enzyme solution; endogenous in cells; host or cells: B16 melanoma cells (Triton X100 lysate, sonicated, 11,000 G supernatant)
T1 sequence (P11344 19-533): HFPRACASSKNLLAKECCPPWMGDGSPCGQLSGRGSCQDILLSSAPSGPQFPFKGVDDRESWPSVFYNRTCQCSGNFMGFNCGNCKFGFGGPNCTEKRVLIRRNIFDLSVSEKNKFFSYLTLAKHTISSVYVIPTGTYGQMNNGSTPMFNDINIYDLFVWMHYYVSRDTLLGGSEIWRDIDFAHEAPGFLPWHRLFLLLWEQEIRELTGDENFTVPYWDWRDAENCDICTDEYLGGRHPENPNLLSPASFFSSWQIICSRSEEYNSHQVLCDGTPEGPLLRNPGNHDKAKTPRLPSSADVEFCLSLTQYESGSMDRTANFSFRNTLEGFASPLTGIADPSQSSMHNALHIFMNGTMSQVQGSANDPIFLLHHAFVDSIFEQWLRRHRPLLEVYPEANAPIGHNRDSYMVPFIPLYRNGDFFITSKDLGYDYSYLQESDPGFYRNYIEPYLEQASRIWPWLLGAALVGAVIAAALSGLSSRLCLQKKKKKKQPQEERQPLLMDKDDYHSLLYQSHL
Description: B16 melanoma cells were cultured for 3 days in DMEM containing 10% FBS at 37° C. in the presence of 5% carbon dioxide. The cells proliferated after culture were recovered by treatment with trypsin, then suspended in PBS containing 0.1% Triton X100 at a density of ten million cells/ml and disrupted by sonication. The product obtained was centrifuged at 11,000 G for 20 minutes, and the resulting supernatant was used as a crude enzyme solution. Added thereto was 0.2 ml of crude enzyme solution. The mixture was preliminarily kept at 37° C. for 5 minutes, and 0.2 ml L-DOPA solution (0.5 mg/ml) was added as the substrate, and the mixture was kept at 37° C. for 3 hours.

[15] = system: UV Ray-induced Pigment Stains; assay: Effect of diminishing UV ray-induced pigment stains in guinea pigs; format: in vivo, brown guinea pigs; conditions: 7% ethanol solution applied once per day on UVB-irradiated skin
Excerpt: Hair was carefully removed from the back of 5 brown guinea pigs, and a shielding plate provided with four 2.5 cm×2.5 cm openings was attached to the portion from which hair had been removed, followed by irradiating it 3 times every second day with UVB rays at an intensity of 450 mj/cm^2. Immediately after the irradiation of UVB rays, a 70 micro-liters sample was applied onto the irradiated site once per day for 35 days, and the amount of pigment diminished by this treatment was examined on the days shown in Table 5. […]
For evaluation of the activity, each application site was measured by a calorimeter (CR200b, Minolta Co Ltd.). ΔLx is the difference between the L value after the sample application (value changing with time) and the L value of the portion before the sample application started, and then ΔΔL value was determined by subtracting ΔLo value (i.e. the value similarly determined for the portion to which ethanol was applied) from the ΔLx value. The ΔΔL value can be determined according to the equation: […]
Lo: L value of the test site (site to which the sample was applied) before sample application
Lx : L value of the test site (site to which the sample was applied) on Day x after sample application
L′o : L value of the control site (site to which ethanol was applied) before ethanol application
L′x : L value of the control site (site to which ethanol was applied) on Day x after ethanol application

Row | Compound | MIC [2] | MIC [3] | MIC [4] | MIC [5] | MIC [6] | MIC [7] | MIC [8] | MIC [9] | MIC [10] | Degree of inhibition of mushroom tyrosinase [13] | also measured
1 | labden-15-oic acid [Compound 10] | 12.5 ppm | 6.3 ppm | 6.3 ppm | 6.3 ppm | 6.3 ppm | 6.3 ppm | 6.3 ppm | 6.3 ppm | 6.3 ppm |  | Degree of melanin inhibition ([1]; 6.3 ppm, 3 days): 83%; Degree of cell proliferation ([1]; 6.3 ppm): 97%; Degree of cell proliferation of fibroblasts [11]: 126%
2 | CC1=C(CCC(C)CC(=O)O)C2(C)CCCC(C)(C)C2CC1 (stereo not drawn) [Compound 1, labd-8-en-15-oic acid] | 12.5 ppm | 6.3 ppm | 6.3 ppm | 6.3 ppm | 6.3 ppm | 12.5 ppm | 6.3 ppm | 12.5 ppm | 6.3 ppm | 0% | Degree of cell proliferation [12]: 115%; Degree of melanin inhibition [12]: 22%; Degree of melanin inhibition ([1]; 3.1 ppm, 3 days): 80%; Degree of cell proliferation ([1]; 3.1 ppm): 109%; Degree of inhibition of tyrosinase in B16 melanoma cells [14]: 0%
3 | O=c1cc(CO)occ1O [Kojic acid, reference compound] |  |  |  |  |  |  |  |  |  | 67% | Degree of cell proliferation ([1]; 200.00 ppm): 94%; inhibition at 200 ppm ([1]; Mus musculus, 72 h, 200.00 ppm, 3 days, read-out: Degree of melanin inhibition): 34%; ΔΔL ([15]; Day 14): 1.32; ΔΔL ([15]; Day 28): 1.52; ΔΔL ([15]; Day 35): 1.40
